Structures can show the parent of a compound that is named as a salt. Where two headings read alike, the source gives them in different places.
What was measured:
Assay type in all cases: biochemical
Falcipain-2 = Falcipain-2 (Plasmodium falciparum, UniProt Q8I6U4); assay: Falcipain-2 enzymatic assay (assay 1)
Procedure: (§1) Assay 1) Determination of Falcipain-2, Falcipain-3, Vivapain-2, Cathepsin K Cathepsin S, Cathepsin L, and Cathepsin B Proteolytic Catalytic Activity
(§2) Assays for Falcipain-2, Falcipain-3, and Vivapain-2 are carried out with parasitic recombinant enzymes. Cathepsins K, S, L, and B are carried out with human recombinant enzymes. Standard assay conditions for the determination of kinetic constants used a fluorogenic peptide substrate, typically H-D-VLR-AFC (Falcipain-2, Falcipain-3, Vivapain-2), Z-FR-AFC (Cathepsin K, L, B), or KQKLR-AMC (Cathepsin S) and are determined in 100 mM sodium acetate, pH 5.5, containing 10 mM DTT and 0.5 mM CHAPS (Falcipain-2, Falcipain-3, Vivapain-2), and 100 mM sodium acetate, pH 5.5, containing 5 mM L-cysteine, 1 mM CHAPS and 5 mM EDTA (Cathepsin K, L, B), or 50 mM MES, pH 6.5, containing 0.5 mM CHAPS, 10 mM L-CYS, 5 mM EDTA (Cathepsin S). Stock substrate solutions are prepared at 20 mM in DMSO. The activity assays contained 30 uM substrate (Falcipain-2, Falcipain-3, Vivapain-2), 20 uM substrate (Cathepsin K), 25 uM substrate (Cathepsin B), 5 uM substrate (Cathepsin L), and 30 uM substrate (Cathepsin S). All assays contained 1% DMSO. […] All assays are conducted at ambient temperature as end point assays being quenched after 60 minutes with the exception of Cathepsin S at 90 minutes, with 16.6 uM E-64 in 1% DMSO. Product formation (AFC or AMC) is determined from fluorescence (excitation at 405 nm; emission at 530 nm, AFC, or excitation at 360 nm; emission at 460 nm, AMC) monitored with a LJL Aquest (Molecular Devices) fluorescent plate reader. In the case of kinetic reads (used in mechanism of action studies), the reaction is not quenched but is read in the plate reader every 3 minutes for approximately 90 minutes. In addition, the mechanism of action studies for Falcipain-2 utilize Z-LR-AMC as the substrate. Product formation is determined from the fluorescence of AMC, measured with a LJL Acquest (Molecular Devices) fluorescent plate reader (excitation at 360 nm; emission at 460 nm).
(§3) Potential inhibitors are evaluated using the quenched read (endpoint) method. Assays are carried out in the presence of variable concentrations of test compound. Reactions are initiated by addition of enzyme and substrate to wells containing inhibitor stamped in 100% DMSO. For endpoint assays, the reaction is quenched with the addition of E64. Dose response data is fit to an IC50 curve with preset fitting tools according to equation 1:
(§4) y=a+(b−a)/(1+(10^x/10^c)^d) (1)
(§5) where y is the response at a particular inhibitor concentration x, a is the minimum response value, b is the maximum response value, c is the IC50, and d is the slope of the IC50 curve. Assuming the compound is a competitive inhibitor, the apparent KI can be calculated from IC50, as shown in equation 2: […]

Falcipain-3 = Falcipain-3 (Plasmodium falciparum, UniProt Q8IIL0); assay: Falcipain-3 enzymatic assay (assay 1)
Procedure: as §1, §2, §3, §4, §5

Cathepsin K = target: T1, Cathepsin K (Homo sapiens, UniProt P43235); assay: Cathepsin K enzymatic assay (assay 1); conditions: human recombinant enzyme, Z-FR-AFC substrate, pH 5.5
T1 sequence (P43235 115-329): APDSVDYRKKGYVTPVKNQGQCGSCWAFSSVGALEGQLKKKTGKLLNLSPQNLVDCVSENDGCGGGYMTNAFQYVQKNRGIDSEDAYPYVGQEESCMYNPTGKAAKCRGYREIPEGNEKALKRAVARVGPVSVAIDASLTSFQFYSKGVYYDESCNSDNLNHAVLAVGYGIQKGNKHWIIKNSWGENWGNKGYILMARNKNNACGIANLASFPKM
Procedure: as §1, §2, §3, §4, §5

Cathepsin S = Cathepsin S (Homo sapiens, UniProt P25774); assay: Cathepsin S enzymatic assay (assay 1); conditions: human recombinant enzyme, KQKLR-AMC substrate, pH 6.5
Procedure: as §1, §2, §3, §4, §5

Chain of Falcipain-2 (Q8I6U4 244-484): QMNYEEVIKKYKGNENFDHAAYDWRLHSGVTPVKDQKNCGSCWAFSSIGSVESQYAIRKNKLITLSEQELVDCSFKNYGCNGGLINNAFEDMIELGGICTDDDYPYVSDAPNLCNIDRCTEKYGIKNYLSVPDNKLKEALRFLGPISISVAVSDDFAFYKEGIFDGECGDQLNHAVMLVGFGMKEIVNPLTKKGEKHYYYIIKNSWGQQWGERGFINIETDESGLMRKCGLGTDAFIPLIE
Chain of Cathepsin S (P25774 115-331): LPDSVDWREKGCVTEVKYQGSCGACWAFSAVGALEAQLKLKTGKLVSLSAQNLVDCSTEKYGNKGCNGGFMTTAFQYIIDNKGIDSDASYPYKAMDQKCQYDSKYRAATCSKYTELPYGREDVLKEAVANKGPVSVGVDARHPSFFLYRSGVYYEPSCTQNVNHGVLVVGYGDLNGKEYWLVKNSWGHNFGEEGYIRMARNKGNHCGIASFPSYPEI
Chain of Falcipain-3 (Q8IIL0 243-492): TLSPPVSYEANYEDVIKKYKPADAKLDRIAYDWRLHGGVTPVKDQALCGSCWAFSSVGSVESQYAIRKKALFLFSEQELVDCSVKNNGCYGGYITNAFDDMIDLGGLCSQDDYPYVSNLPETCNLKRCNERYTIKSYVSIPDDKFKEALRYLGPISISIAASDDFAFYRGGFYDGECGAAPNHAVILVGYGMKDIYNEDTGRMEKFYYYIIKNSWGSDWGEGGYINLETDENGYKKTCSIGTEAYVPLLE

Row | SMILES | IC50 (Falcipain-2) [nM] | IC50 (Falcipain-3) [nM] | IC50 (Cathepsin K) [nM] | IC50 (Cathepsin S) [nM] | IC50 (Falcipain-2; parasitic recombinant enzyme, H-D-VLR-AFC substrate, pH 5.5, endpoint read, read-out: Falcipain-2 IC50) [nM] | IC50 (Falcipain-3; parasitic recombinant enzyme, H-D-VLR-AFC substrate, pH 5.5, endpoint read, read-out: Falcipain-3 IC50) [nM]
1 | CN1CCN(C(=O)C2CCN(Cc3cccc(C(=O)NN(c4nc(C#N)ncc4Br)C4CCCCC4)c3)CC2)CC1 [Example 23, N′-(5-bromo-2-cyano-4-pyrimidinyl)-N′-cyclohexyl-3-({4-[(4-methyl-1-piperazinyl)carbonyl]-1-piperidinyl}methyl)benzohydrazide trifluoroacetate] | < 1 | 2.5 to 15 | < 1.5 | – | – | –
2 | N#Cc1ncc(Br)c(N(NC(=O)c2cccc(CN3CCC(N4CCOCC4)CC3)c2)C2CCCCC2)n1 [Example 24, N′-(5-bromo-2-cyano-4-pyrimidinyl)-N′-cyclohexyl-3-{[4-(4-morpholinyl)-1-piperidinyl]methyl}benzohydrazide trifluoroacetate] | < 1 | 2.5 to 15 | < 1.5 | – | – | –
3 | CN1CCCC(CN2CCN(Cc3ccc(C(=O)NN(c4nc(C#N)ncc4Br)C4CCCCC4)cc3)CC2)C1 (stereo not drawn) [Example 25, N′-(5-bromo-2-cyano-4-pyrimidinyl)-N′-cyclohexyl-4-({4-[(-methyl-3-piperidinyl)methyl]-1-piperazinyl}methyl)benzohydrazide trifluoroacetate] | < 1 | 2.5 to 15 | < 1.5 | – | – | –
4 | CN1CCC(CN2CCN(Cc3cccc(C(=O)NN(c4nc(C#N)ncc4Br)C4CCCCC4)c3)CC2)CC1 [Example 28, N′-(5-bromo-2-cyano-4-pyrimidinyl)-N′-cyclohexyl-3-({4-[(1-methyl-4-piperidinyl)methyl]-1-piperazinyl}methyl)benzohydrazide trifluoroacetate] | < 1 | 2.5 to 15 | – | < 1000 | – | –
5 | CN1CCC(CN2CCN(Cc3ccc(C(=O)NN(c4nc(C#N)ncc4Br)C4CCOCC4)cc3)CC2)CC1 [Example 30, N′-(5—Bromo-2-cyano-4-pyrimidinyl)-4-({4-[(1-methyl-4-piperidinyl)methyl]-1-piperazinyl}methyl)-N′-(tetrahydro-2H-pyran-4-yl)benzohydrazide trifluoroacetate] | 1 to 2.5 | 2.5 to 15 | < 17 | – | – | –
6 | CN1CCCC(CN2CCN(Cc3ccc(C(=O)NN(c4nc(C#N)ncc4Br)C4CCOCC4)cc3)CC2)C1 (stereo not drawn) [Example 31, N′-(5—Bromo-2-cyano-4-pyrimidinyl)-4-({4-[(1-methyl-3-piperidinyl)methyl]-1-piperazinyl}methyl)-N′-(tetrahydro-2H-pyran-4-yl)benzohydrazide trifluoroacetate] | < 1 | 15 to 150 | < 17 | – | – | –
7 | CN1CCN(C(=O)C2CCN(Cc3ccc(C(=O)NN(c4nc(C#N)ncc4Br)C4CCOCC4)cc3)CC2)CC1 [Example 32, N′-(5—Bromo-2-cyano-4-pyrimidinyl)-4-({4-[(4-methyl-1-piperazinyl)carbonyl]-1-piperidinyl}methyl)-N′-(tetrahydro-2H-pyran-4-yl)benzohydrazide trifluoroacetate] | < 1 | 2.5 to 15 | < 17 | – | – | –
8 | N#Cc1ncc(Br)c(N(NC(=O)c2ccc(CN3CC(N4CCCC4)C3)cc2)C2CCOCC2)n1 [Example 33, N′-(5-bromo-2-cyano-4-pyrimidinyl)-4-{[3-(1-pyrrolidinyl)-1-azetidinyl]methyl}-N′-(tetrahydro-2H-pyran-4-yl)benzohydrazide trifluoroacetate] | < 1 | 15 to 150 | < 17 | – | – | –
9 | CN1CCC(CN2CCN(Cc3ccc(C(=O)NN(c4nc(C#N)ncc4Cl)C4CCOCC4)cc3)CC2)CC1 [Example 35, N′-(5-Chloro-2-cyano-4-pyrimidinyl)-4-({4-[(1-methyl-4-piperidinyl)methyl]-1-piperazinyl}methyl)-N′-(tetrahydro-2H-pyran-4-yl)benzohydrazide trifluoroacetate] | 1 to 2.5 | 15 to 150 | < 17 | – | – | –
10 | CN1CCN(C(=O)C2CCN(Cc3ccc(C(=O)NN(c4nc(C#N)ncc4Cl)C4CCOCC4)cc3)CC2)CC1 [Example 36, N′-(5-Chloro-2-cyano-4-pyrimidinyl)-4-({4-[(4-methyl-1-piperazinyl)carbonyl]-1-piperidinyl}methyl)-N′-(tetrahydro-2H-pyran-4-yl)benzohydrazide trifluoroacetate] | – | 15 to 150 | < 17 | – | < 1 | –
11 | CC(=O)N1CCC(N(NC(=O)c2ccc(CN3CCC(N4CCN(C)CC4)CC3)cc2)c2nc(C#N)ncc2Br)CC1 [Example 38, N′-(1-acetyl-4-piperidinyl)-N′-(5-bromo-2-cyano-4-pyrimidinyl)-4-{[4-(4-methyl-1-piperazinyl)-1-piperidinyl]methyl}benzohydrazide trifluoroacetate] | < 1 | – | – | < 200 | – | 2.5 to 15
12 | CN1CCN(c2ccc(C(=O)NN(c3nc(C#N)ncc3Cl)C3CCCC3)cc2)CC1 [Example 52, N′-(5-chloro-2-cyano-4-pyrimidinyl)-N′-cyclopentyl-4-(4-methyl-1-piperazinyl)benzohydrazide trifluoroacetate] | < 1 | 2.5 to 15 | – | < 200 | – | –
13 | CN(Cc1ccc(C(=O)NN(c2nc(C#N)ncc2Cl)C2CCCC2)cc1)C1CCCCC1 [Example 53, N′-(5-chloro-2-cyano-4-pyrimidinyl)-4-{[cyclohexyl(methyl)amino]methyl}-N′-cyclopentylbenzohydrazide trifluoroacetate] | < 1 | 2.5 to 15 | – | < 200 | – | –
14 | CN(C)Cc1ccc(C(=O)NN(c2nc(C#N)ncc2Cl)C2CCCC2)cc1 [Example 54, N′-(5-chloro-2-cyano-4-pyrimidinyl)-N′-cyclopentyl-4-[(dimethylamino)methyl]benzohydrazide trifluoroacetate] | < 1 | 2.5 to 15 | – | < 200 | – | –
15 | CCCN(C)Cc1ccc(C(=O)NN(c2nc(C#N)ncc2Cl)C2CCCC2)cc1 [Example 55, N′-(5-chloro-2-cyano-4-pyrimidinyl)-N′-cyclopentyl-4-{[methyl(propyl)amino]methyl}benzohydrazide trifluoroacetate] | < 1 | 2.5 to 15 | – | < 200 | – | –
16 | CCCCCCN(C)Cc1ccc(C(=O)NN(c2nc(C#N)ncc2Cl)C2CCCC2)cc1 [Example 56, N′-(5-chloro-2-cyano-4-pyrimidinyl)-N′-cyclopentyl-4-{([hexyl(methyl)amino]methyl}benzohydrazide trifluoroacetate] | < 1 | 2.5 to 15 | – | < 200 | – | –
17 | CCCCN(C)Cc1ccc(C(=O)NN(c2nc(C#N)ncc2Cl)C2CCCC2)cc1 [Example 57, 4-{[butyl(methyl)amino]methyl}-N′-(5-chloro-2-cyano-4-pyrimidinyl)-N′-cyclopentylbenzohydrazide trifluoroacetate] | < 1 | 2.5 to 15 | – | < 200 | – | –
18 | CN(CCC(O)c1ccccc1)Cc1ccc(C(=O)NN(c2nc(C#N)ncc2Cl)C2CCCC2)cc1 (stereo not drawn) [Example 59, N′-(5-chloro-2-cyano-4-pyrimidinyl)-N′-cyclopentyl-4-{[(3-hydroxy-3-phenylpropyl)(methyl)amino]methyl}benzohydrazide trifluoroacetate] | < 1 | 1 to 2.5 | – | < 200 | – | –
19 | CN(CC(=O)N(C)C)Cc1ccc(C(=O)NN(c2nc(C#N)ncc2Cl)C2CCCC2)cc1 [Example 60, N^2-[(4-{[2-(5-chloro-2-cyano-4-pyrimidinyl)-2-cyclopentylhydrazino]carbonyl}phenyl)methyl]-N^1,N^1,N^2-trimethylglycinamide trifluoroacetate] | < 1 | 2.5 to 15 | – | < 200 | – | –

Reference: patent US20100009956A1, “NOVEL SUBSTITUTED PYRIMIDINES AS CYSTEINE PROTEASE INHIBITORS” (Glaxo Group Limited , a corporation, priority 2006, published 2010)
